According to article PMC6099635, “New Records of Potent In-Vitro Antidiabetic Properties of Dalbergia tonkinensis Heartwood and the Bioactivity-Guided Isolation of Active Compounds” (Molecules : A Journal of Synthetic Chemistry and Natural …, 2018):
One block for each compound: values may come before it.

Columns and labels:
Experiment in all cases: colorimetric pNPG hydrolysis, […] nm
[1] = target: T1, Rice α-glucosidase (Type 4); assay type: biochemical, Oryza sativa; conditions: pNPG substrate; 0.1 M potassium phosphate pH 7; 37 °C; 20 min pre-incubation, 30 min reaction
T1 construct: gene Os06g0675700

[2] = target: T2, Saccharomyces cerevisiae (yeast) α-glucosidase; assay type: biochemical; conditions: pNPG substrate; 0.1 M potassium phosphate pH 7; 37 °C; 20 min pre-incubation, 30 min reaction
T2 construct: gene MAL12

Rat α-glucosidase = target: T3, Rat α-glucosidase; assay type: biochemical; conditions: pNPG substrate; 0.1 M potassium phosphate pH 7; 37 °C; 20 min pre-incubation, 60 min reaction
T3 construct: gene Si; Sigma Aldrich preparation

Inhibition Expressed as EC50 (mg/mL) / Sativanone [1]: 0.81 ± 0.023 mg/mL
Inhibition Expressed as EC50 (mg/mL) / Sativanone [2]: 0.23 ± 0.012 mg/mL
Inhibition Expressed as EC50 (mg/mL) / Sativanone (Rat α-glucosidase): 0.37 ± 0.022 mg/mL
Structure (SMILES): COc1ccc(C2COc3cc(O)ccc3C2=O)c(OC)c1 (stereo not drawn) [compound 1, sativanone]

Structure (SMILES): COc1ccc(-c2coc3cc(O)ccc3c2=O)cc1 [compound 2, formononetin]
Inhibition Expressed as EC50 (mg/mL) / Formononetin [1]: 0.98 ± 0.029 mg/mL
Inhibition Expressed as EC50 (mg/mL) / Formononetin [2]: 0.06 ± 0.002 mg/mL
Inhibition Expressed as EC50 (mg/mL) / Formononetin (Rat α-glucosidase): 0.23 ± 0.037 mg/mL

Inhibition Expressed as EC50 (mg/mL) / Acarbose [1]: 0.031 ± 0.005 mg/mL
Inhibition Expressed as EC50 (mg/mL) / Acarbose [2]: 1.321 ± 0.048 mg/mL
Inhibition Expressed as EC50 (mg/mL) / Acarbose (Rat α-glucosidase): 0.121 ± 0.001 mg/mL
Structure (SMILES): C[C@H]1O[C@H](O[C@H]2[C@H](O)[C@@H](O)[C@@H](O[C@H]3[C@H](O)[C@@H](O)C(O)O[C@@H]3CO)O[C@@H]2CO)[C@H](O)[C@@H](O)[C@@H]1N[C@H]1C=C(CO)[C@@H](O)[C@H](O)[C@H]1O (stereo partly drawn) [acarbose, reference compound]
